Results taken from ChEMBL document CHEMBL5212743, “Selectivity Literature for EUbOPEN Chemogenomics Library wave 3” (2023).

Columns and labels:
[1] = target: Adenosine receptor A2b (Homo sapiens) (UniProt P29275); test: Selectivity interaction (Eurofins Panlabs Discovery Services Panel (enzymes and receptors)) EUB0000234b ADORA2B; conditions: at 10 µM
[2] = target: Muscarinic acetylcholine receptor M2 (Homo sapiens, UniProt P08172); test: Selectivity interaction (GloSensor assay) EUB0000234b CHRM2
[3] = target: PR domain zinc finger protein 8 (Homo sapiens) (UniProt Q9NQV8); test: Selectivity interaction (Methyltransferase panel (DSF assay)) EUB0000234b PRDM8
[4] = target: PR domain zinc finger protein 1 (Homo sapiens) (UniProt O75626); test: Selectivity interaction (Methyltransferase panel (DSF assay)) EUB0000234b PRDM1
[5] = target: Histone-lysine N-methyltransferase PRDM9 (Homo sapiens) (UniProt Q9NQV7); test: Selectivity interaction (NanoLuciferase thermal shift assay (NALTSA, in HEK293 cells)) EUB0000234b PRDM9; type: cell-based
Histamine H3 receptor [6] = target: T1, Histamine H3 receptor (Homo sapiens, UniProt Q9Y5N1); test: Selectivity interaction (GloSensor assay) EUB0000234b HRH3
[7] = target: Putative histone-lysine N-methyltransferase PRDM6 (Homo sapiens) (UniProt Q9NQX0); test: Selectivity interaction (Methyltransferase panel (DSF assay)) EUB0000234b PRDM6
Mu-type opioid receptor [8] = target: T2, Mu-type opioid receptor (Homo sapiens, UniProt P35372); test: Selectivity interaction (Eurofins Panlabs Discovery Services Panel (enzymes and receptors)) EUB0000234b OPRM1; conditions: at 10 µM
[9] = target: Histone-lysine N-methyltransferase MECOM (Homo sapiens) (UniProt Q03112); test: Selectivity interaction (Methyltransferase panel (DSF assay)) EUB0000234b MECOM
Adenosine receptor A2b = Adenosine receptor A2b (Homo sapiens, UniProt P29275); test: Selectivity interaction (GloSensor assay) EUB0000234b ADORA2B
[10] = target: T3, Muscarinic acetylcholine receptor M2 (Homo sapiens) (UniProt P08172); test: Selectivity interaction (Eurofins Panlabs Discovery Services Panel (enzymes and receptors)) EUB0000234b CHRM2; conditions: at 10 µM
T3 sequence (whole entry): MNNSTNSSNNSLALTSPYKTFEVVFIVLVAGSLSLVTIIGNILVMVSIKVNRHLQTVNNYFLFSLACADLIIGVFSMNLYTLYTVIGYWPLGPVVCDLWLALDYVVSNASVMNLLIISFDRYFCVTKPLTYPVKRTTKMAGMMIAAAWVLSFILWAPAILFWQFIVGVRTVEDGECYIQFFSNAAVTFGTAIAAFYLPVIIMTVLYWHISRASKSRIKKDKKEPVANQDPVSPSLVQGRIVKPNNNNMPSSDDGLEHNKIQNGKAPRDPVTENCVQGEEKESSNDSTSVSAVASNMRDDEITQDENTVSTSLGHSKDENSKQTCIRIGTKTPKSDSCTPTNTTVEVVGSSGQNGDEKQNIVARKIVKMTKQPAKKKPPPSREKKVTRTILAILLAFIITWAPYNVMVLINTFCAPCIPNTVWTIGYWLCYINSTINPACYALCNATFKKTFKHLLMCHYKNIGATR

Histamine H3 receptor [11] = target: T1, Histamine H3 receptor; test: Selectivity interaction (Eurofins Panlabs Discovery Services Panel (enzymes and receptors)) EUB0000234b HRH3; conditions: at 10 µM
[12] = target: PR domain zinc finger protein 10 (Homo sapiens) (UniProt Q9NQV6); test: Selectivity interaction (Methyltransferase panel (DSF assay)) EUB0000234b PRDM10
[13] = target: PR domain zinc finger protein 14 (Homo sapiens) (UniProt Q9GZV8); test: Selectivity interaction (Methyltransferase panel (DSF assay)) EUB0000234b PRDM14
[14] = target: Histone-lysine N-methyltransferase PRDM16 (Homo sapiens) (UniProt Q9HAZ2); test: Selectivity interaction (Methyltransferase panel (DSF assay)) EUB0000234b PRDM16
[15] = target: PR domain zinc finger protein 13 (Homo sapiens) (UniProt Q9H4Q3); test: Selectivity interaction (Methyltransferase panel (DSF assay)) EUB0000234b PRDM13
[16] = target: PR domain zinc finger protein 2 (Homo sapiens) (UniProt Q13029); test: Selectivity interaction (Methyltransferase panel (DSF assay)) EUB0000234b PRDM2
[17] = target: Histone-lysine N-methyltransferase PRDM7 (Homo sapiens) (UniProt Q9NQW5); test: Selectivity interaction (Methyltransferase panel (DSF assay)) EUB0000234b PRDM7
[18] = target: Histone-lysine N-methyltransferase PRDM9 (Homo sapiens) (UniProt Q9NQV7); test: Selectivity interaction (Methyltransferase panel (DSF assay)) EUB0000234b PRDM9
Mu-type opioid receptor [19] = target: T2, Mu-type opioid receptor; test: Selectivity interaction (GloSensor assay) EUB0000234b OPRM1
[20] = target: PR domain-containing protein 11 (Homo sapiens) (UniProt Q9NQV5); test: Selectivity interaction (Methyltransferase panel (DSF assay)) EUB0000234b PRDM11
[21] = target: PR domain zinc finger protein 12 (Homo sapiens) (UniProt Q9H4Q4); test: Selectivity interaction (Methyltransferase panel (DSF assay)) EUB0000234b PRDM12

Sequence of Histone-lysine N-methyltransferase PRDM9 (Homo sapiens) (Q9NQV7 whole entry): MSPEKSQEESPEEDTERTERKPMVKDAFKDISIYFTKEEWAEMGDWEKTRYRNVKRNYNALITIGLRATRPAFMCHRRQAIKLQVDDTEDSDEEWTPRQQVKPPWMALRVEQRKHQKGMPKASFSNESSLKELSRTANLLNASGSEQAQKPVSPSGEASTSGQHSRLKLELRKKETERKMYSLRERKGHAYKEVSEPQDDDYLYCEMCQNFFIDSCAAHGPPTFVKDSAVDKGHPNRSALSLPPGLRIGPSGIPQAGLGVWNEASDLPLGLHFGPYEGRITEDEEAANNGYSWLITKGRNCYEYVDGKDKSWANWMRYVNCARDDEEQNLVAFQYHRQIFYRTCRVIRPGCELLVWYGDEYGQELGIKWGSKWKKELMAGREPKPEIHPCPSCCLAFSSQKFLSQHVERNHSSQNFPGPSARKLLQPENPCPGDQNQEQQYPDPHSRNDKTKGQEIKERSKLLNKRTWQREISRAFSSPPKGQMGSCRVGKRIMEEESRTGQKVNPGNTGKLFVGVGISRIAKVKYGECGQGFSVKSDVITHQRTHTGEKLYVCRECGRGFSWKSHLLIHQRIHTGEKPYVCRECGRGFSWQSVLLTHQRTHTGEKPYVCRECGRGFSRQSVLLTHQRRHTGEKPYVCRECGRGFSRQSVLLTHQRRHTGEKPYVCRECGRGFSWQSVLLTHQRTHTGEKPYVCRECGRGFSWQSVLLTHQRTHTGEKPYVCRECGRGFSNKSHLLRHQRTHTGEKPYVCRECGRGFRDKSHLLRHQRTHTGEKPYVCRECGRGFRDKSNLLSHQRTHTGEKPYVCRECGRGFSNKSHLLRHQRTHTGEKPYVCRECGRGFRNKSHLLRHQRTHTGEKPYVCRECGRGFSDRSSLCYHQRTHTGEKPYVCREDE
T2 sequence (P35372 whole entry): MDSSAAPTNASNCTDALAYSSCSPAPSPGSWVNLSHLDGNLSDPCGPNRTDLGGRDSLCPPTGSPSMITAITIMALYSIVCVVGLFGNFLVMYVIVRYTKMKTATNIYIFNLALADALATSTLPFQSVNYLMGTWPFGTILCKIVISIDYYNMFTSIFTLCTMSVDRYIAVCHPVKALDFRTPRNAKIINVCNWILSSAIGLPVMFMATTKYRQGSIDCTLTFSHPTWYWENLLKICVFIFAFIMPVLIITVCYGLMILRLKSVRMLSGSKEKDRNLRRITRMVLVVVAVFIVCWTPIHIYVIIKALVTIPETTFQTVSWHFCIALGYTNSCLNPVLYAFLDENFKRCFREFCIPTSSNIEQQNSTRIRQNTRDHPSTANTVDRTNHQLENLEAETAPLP
T1 sequence (Q9Y5N1 whole entry): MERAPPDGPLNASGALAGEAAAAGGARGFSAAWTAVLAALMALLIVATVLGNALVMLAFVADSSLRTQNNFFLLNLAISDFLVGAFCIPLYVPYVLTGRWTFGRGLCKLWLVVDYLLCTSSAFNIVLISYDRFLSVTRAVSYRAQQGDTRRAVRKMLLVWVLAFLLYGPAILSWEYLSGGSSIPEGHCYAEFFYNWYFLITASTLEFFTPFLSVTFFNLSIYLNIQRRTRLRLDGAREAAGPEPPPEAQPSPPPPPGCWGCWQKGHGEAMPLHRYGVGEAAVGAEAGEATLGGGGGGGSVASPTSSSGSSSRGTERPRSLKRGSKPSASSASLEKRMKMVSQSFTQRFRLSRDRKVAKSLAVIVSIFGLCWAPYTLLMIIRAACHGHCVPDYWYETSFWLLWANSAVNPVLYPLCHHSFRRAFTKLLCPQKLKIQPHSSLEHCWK
Sequence of PR domain zinc finger protein 14 (Homo sapiens) (Q9GZV8 whole entry, the tested form may be a part): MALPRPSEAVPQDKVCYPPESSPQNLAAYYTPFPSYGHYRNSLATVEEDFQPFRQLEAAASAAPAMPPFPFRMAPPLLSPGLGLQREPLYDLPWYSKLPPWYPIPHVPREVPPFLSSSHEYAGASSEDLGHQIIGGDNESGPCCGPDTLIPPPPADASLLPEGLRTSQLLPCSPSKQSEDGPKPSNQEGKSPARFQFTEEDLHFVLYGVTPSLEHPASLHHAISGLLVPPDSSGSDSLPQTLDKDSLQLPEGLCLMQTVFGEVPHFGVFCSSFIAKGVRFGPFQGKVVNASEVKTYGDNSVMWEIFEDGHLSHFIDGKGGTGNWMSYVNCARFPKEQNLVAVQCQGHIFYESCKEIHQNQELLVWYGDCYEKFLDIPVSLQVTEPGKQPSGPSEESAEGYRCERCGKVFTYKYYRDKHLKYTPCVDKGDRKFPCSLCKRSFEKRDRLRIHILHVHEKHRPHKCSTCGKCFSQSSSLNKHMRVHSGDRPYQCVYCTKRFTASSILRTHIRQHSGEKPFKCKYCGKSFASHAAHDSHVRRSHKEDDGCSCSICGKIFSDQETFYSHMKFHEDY
Sequence of PR domain zinc finger protein 8 (Homo sapiens) (Q9NQV8 whole entry, the tested form may be a part): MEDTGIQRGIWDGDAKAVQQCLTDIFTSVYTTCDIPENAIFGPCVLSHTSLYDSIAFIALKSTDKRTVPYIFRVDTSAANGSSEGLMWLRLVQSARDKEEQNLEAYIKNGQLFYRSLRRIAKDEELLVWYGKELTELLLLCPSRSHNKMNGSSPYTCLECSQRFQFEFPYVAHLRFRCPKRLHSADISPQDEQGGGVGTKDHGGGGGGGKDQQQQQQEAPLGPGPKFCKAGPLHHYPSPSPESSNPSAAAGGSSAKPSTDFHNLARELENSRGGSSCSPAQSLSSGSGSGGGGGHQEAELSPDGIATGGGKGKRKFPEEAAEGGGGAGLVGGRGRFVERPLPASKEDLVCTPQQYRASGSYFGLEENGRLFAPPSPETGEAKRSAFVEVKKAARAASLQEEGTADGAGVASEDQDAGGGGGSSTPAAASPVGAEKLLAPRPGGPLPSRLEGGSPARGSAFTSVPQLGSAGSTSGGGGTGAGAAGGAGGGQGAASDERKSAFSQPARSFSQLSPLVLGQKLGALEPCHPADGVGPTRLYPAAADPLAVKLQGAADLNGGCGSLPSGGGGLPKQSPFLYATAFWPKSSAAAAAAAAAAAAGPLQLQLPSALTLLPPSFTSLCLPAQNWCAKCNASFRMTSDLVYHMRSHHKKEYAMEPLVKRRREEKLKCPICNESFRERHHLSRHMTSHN
Sequence of PR domain zinc finger protein 2 (Homo sapiens) (Q13029 whole entry, the tested form may be a part): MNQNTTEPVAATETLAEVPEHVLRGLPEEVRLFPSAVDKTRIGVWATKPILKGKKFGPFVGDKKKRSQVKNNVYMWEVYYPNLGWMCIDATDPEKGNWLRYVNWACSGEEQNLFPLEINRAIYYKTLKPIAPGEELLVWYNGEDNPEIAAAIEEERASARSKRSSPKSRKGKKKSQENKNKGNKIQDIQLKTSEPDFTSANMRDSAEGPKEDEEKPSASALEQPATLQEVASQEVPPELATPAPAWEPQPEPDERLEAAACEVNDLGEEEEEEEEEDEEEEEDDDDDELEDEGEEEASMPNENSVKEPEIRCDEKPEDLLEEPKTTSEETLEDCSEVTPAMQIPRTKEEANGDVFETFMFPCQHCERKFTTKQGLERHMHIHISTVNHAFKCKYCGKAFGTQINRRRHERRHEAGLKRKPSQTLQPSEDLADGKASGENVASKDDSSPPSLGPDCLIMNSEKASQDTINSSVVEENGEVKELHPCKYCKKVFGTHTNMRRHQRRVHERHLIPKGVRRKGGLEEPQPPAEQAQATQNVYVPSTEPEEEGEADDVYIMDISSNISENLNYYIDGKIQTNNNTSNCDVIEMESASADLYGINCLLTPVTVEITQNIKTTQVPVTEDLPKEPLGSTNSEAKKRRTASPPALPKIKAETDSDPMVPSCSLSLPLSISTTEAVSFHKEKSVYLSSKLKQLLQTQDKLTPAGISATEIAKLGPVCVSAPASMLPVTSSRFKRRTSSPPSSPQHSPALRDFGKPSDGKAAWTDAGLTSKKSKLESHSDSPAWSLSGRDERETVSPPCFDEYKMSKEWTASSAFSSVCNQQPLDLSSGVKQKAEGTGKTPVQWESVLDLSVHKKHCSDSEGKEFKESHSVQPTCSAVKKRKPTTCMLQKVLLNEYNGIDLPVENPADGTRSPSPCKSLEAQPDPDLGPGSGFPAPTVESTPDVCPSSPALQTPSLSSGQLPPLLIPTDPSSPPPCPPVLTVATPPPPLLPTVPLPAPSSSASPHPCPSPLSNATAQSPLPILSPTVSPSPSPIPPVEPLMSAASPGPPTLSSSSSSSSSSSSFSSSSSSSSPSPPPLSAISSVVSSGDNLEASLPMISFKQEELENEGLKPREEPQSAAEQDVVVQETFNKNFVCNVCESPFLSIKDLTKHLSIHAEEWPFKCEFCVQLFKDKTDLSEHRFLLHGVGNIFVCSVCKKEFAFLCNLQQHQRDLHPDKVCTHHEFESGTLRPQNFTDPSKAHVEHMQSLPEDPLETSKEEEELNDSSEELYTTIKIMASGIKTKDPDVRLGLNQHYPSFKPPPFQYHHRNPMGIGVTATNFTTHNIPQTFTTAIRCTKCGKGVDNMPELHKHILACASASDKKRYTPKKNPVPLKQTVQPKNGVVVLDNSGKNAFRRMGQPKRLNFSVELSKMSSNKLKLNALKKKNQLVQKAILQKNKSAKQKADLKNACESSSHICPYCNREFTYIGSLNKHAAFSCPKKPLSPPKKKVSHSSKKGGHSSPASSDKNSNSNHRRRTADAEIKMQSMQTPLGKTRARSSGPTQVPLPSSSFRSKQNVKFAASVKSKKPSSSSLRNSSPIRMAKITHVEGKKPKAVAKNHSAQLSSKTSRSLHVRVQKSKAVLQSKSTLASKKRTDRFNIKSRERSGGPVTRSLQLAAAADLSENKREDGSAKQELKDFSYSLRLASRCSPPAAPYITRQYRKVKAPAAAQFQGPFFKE
Sequence of Adenosine receptor A2b (P29275 whole entry): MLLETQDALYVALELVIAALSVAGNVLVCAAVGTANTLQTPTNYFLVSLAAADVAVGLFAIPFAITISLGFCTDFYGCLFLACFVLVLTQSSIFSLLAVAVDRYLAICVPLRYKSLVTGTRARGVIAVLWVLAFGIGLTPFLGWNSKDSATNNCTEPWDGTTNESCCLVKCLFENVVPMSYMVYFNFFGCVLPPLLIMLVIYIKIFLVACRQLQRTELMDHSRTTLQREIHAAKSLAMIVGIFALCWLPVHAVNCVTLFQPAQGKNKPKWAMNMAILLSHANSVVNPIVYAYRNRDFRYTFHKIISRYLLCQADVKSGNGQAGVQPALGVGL

% of inhibition [1]: > 50% | EC50 [2]: > 10 µM | dTm [3]: < 2 K | dTm [4]: < 2 K | dTm [5]: 2 K | EC50 (Histamine H3 receptor [6]): > 10 µM | dTm [7]: < 2 K | % of inhibition (Mu-type opioid receptor [8]): > 50% | dTm [9]: < 2 K | EC50 (Adenosine receptor A2b): > 10 µM | % of inhibition [10]: > 50% | % of inhibition (Histamine H3 receptor [11]): > 50% | dTm [12]: < 2 K | dTm [13]: < 2 K | dTm [14]: < 2 K | dTm [15]: < 2 K | dTm [16]: < 2 K | dTm [17]: 5 K | dTm [18]: 5.2 K | EC50 (Mu-type opioid receptor [19]): > 10 µM | dTm [20]: < 2 K | dTm [21]: < 2 K
SMILES: COc1cc(OC)cc(-c2noc(N3CCN(C)C4(CCN(c5ccnc(C)c5)CC4)C3)n2)c1
